# Source: ChEMBL document CHEMBL1629515, “Synthesis and biological evaluation of oleanolic acid derivatives as inhibitors of protein tyrosine phosphatase 1B” (J Nat Prod, 2010)
# Target: T1, Tyrosine-protein phosphatase non-receptor type 1 (Homo sapiens, UniProt P18031)
# T1 sequence (P18031 whole entry): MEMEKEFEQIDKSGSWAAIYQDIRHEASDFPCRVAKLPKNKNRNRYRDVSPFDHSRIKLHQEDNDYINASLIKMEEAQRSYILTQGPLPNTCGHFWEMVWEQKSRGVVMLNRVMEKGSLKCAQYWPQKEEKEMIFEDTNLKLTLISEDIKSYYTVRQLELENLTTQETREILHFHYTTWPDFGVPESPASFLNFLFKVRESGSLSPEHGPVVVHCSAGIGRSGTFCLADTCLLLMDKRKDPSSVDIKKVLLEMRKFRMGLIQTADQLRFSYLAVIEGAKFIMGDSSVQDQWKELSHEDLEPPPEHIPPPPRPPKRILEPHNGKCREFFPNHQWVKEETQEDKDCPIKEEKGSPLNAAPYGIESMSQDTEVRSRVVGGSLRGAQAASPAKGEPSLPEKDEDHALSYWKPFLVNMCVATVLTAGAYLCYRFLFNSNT
# Assay: Inhibition of recombinant PTP1B expressed in Escherichia coli BL21 after 30 mins by spectrophotometry
row,IC50 [µM],SMILES
1,4.11,CC1(C)CC[C@]2(COC(=O)CC(=O)O)CC[C@]3(C)C(=CC[C@@H]4[C@@]5(C)CCC(=O)C(C)(C)[C@@H]5CC[C@]43C)[C@@H]2C1
2,4.61,CC1(C)CC[C@]2(COC(=O)CCC(=O)O)CC[C@]3(C)C(=CC[C@@H]4[C@@]5(C)CCC(=O)C(C)(C)[C@@H]5CC[C@]43C)[C@@H]2C1
3,6.39,CC1(C)CC[C@]2(COC(=O)CCCC(=O)O)CC[C@]3(C)C(=CC[C@@H]4[C@@]5(C)CCC(=O)C(C)(C)[C@@H]5CC[C@]43C)[C@@H]2C1
4,3.12,CC1(C)CC[C@]2(COC(=O)c3ccccc3C(=O)O)CC[C@]3(C)C(=CC[C@@H]4[C@@]5(C)CCC(=O)C(C)(C)[C@@H]5CC[C@]43C)[C@@H]2C1
